Measured values from PMC6160049 (PLoS ONE, 2018).

What was measured:
[1] = Peptide plasma stability analysis (peptide alone)
Description: (§1) Female Sprague Dawley rats were purchased from Charles River (QC, Canada). Rats were housed at the Laurentian University Animal Care Facility and supplied with food and water ad libitum. All experimental protocols were approved by the Health Sciences North Research Institute biosafety committee and the Laurentian University animal care committee. Blood was collected from rats under a surgical plane of anesthesia using isoflurane via cardiac puncture. Rats were then euthanized by excess isoflurane in addition to the severing of the descending aorta and cutting of the diaphragm. Blood was immediately mixed with an ethylenediaminetetraacetic acid solution (Fisher Scientific, Fairlawn NJ,0.1 M, 5 mM final concentration) and stored on ice until being centrifuged at 2,100 x G and 4 °C for 10 minutes. The top plasma layer was removed, aliquoted and stored at -80 °C.
(§2) Dynantin samples were analyzed at a constant solvent flow rate of 0.7 mL/min at 35 °C using a binary gradient (Table 1). Solvent A consisted of a 25% solution of acetonitrile (HPLC grade Fisher Scientific) in ddH2O (0.2 μm filtered) and solvent B consisted of acetonitrile, with each solvent containing 0.1% trifluoroacetic acid (v/v, protein sequencing grade, Sigma Aldrich, Fairlawn NJ).
(§3) MDP samples were analyzed at a constant solvent flow rate of 1.0 mL/min at 35 °C using a binary gradient (Table 2). Solvent A consisted of ddH2O (0.2 μm filtered) and solvent B consisted of methanol (MeOH) (HPLC grade, Fisher Scientific, Fairlawn NJ), with each solvent containing 0.1% formic acid (v/v, LC/MS grade, Fisher Scientific).

[2] = Peptide with mannose lipid (ML-C14) plasma stability analysis; conditions: for dynantin remaining in rat plasma / dynantin degradation in rat plasma: 37 °C, RP-HPLC, UV 210 nm; for dynantin remaining in rat plasma: relative to T-zero; for dynantin degradation in rat plasma: 48 h
Description: as §1, §2, §3
Peptide stability in combination with ML-C14 was investigated using a modified version of the above noted procedure. Aliquots of dynantin or MDP were first combined with varying amounts of ML-C14 (in THF, 20 μL total addition), and then thoroughly mixed before the addition of thawed rat plasma (88 μL). A control sample was also prepared by combining each peptide with THF alone (20 μL) and plasma (88 μL). Samples were incubated at 37 °C in a heating mantle for varying lengths of time before being stored at -80 °C. For HPLC analysis, samples were thawed, thoroughly mixed, diluted in MeOH to destroy liposome particles (1/10 for dynantin, 1/5 for MDP), and solids pelleted by centrifugation at 10,000 rpm and 20 °C for 5 min. The supernatants were carefully removed for analysis (8 μL injections, in duplicate). Stability is represented as the percentage of peptide remaining relative to the amount determined at T-zero.

[3] = thawed rat plasma; conditions: Female Sprague Dawley rats, 37 °C, up to 24 hours

Molecule: CC[C@H](C)[C@H](NC(=O)[C@H](CCCN=C(N)N)NC(=O)[C@H](CCCN=C(N)N)NC(=O)[C@H](CC(C)C)NC(=O)[C@H](Cc1ccccc1)NC(=O)CNC(=O)CNC(=O)[C@@H](C)Cc1c(C)cc(O)cc1C)C(=O)N[C@@H](CCCN=C(N)N)C(=O)N1CCC[C@H]1C(=O)N[C@@H](CCCCN)C(N)=O [dynantin]
- degradation of dynantin in rat plasma ([1]; peptide alone, EDTA rat plasma, 37 °C, 12 h, RP-HPLC, UV 210 nm, relative to T-zero, three experiments): complete dynantin degradation
- dynantin remaining in rat plasma ([2]; with ML-C14, peptide:glycolipid 1:4, EDTA rat plasma 88 μL, 12 h, diluted 1/10 in MeOH, mean ± SEM of three experiments): 21 ± 4%
- dynantin remaining in rat plasma ([2]; with ML-C14, peptide:glycolipid 1:4, rat plasma, 24 h): no detectable peptide
- dynantin remaining in rat plasma ([2]; with ML-C14, peptide:glycolipid 1:8, rat plasma, 12 h, mean ± SEM of three experiments): 62 ± 4%
- dynantin remaining in rat plasma ([2]; with ML-C14, peptide:glycolipid 1:8, rat plasma, 24 h, mean ± SEM of three experiments): 20 ± 3%
- dynantin degradation in rat plasma ([2]; with ML-C14, peptide:glycolipid 1:8, rat plasma): completely degraded
- dynantin remaining in rat plasma ([2]; with ML-C14, peptide:glycolipid 1:10, rat plasma, 12 h, mean ± SEM of three experiments): 66 ± 6%
- dynantin remaining in rat plasma ([2]; with ML-C14, peptide:glycolipid 1:10, rat plasma, 24 h, mean ± SEM of three experiments): 19 ± 4%
- dynantin degradation in rat plasma ([2]; with ML-C14, peptide:glycolipid 1:10, rat plasma): completely degraded

Molecule: (2S)-Mdp-G-G-F-L-R-R-I-R-P-K-NH2
- cleaved bond [3]: L-R and R-R, major and R-I

Molecule: CC(=O)N[C@H]1C(O)O[C@H](CO)[C@@H](O)[C@@H]1O[C@H](C)C(=O)N[C@@H](C)C(=O)N[C@H](CCC(=O)O)C(N)=O (stereo partly shown) [MDP, muramyl dipeptide]
- degradation of MDP in rat plasma [1]: completely degraded
- metabolised at 12 h ([1]; female, Sprague Dawley, rat, plasma): ~60%
- degradation of MDP in rat plasma [2]: Complete degradation
